# Reference: patent US20050054025A1 (priority 2003, published 2005)
# Marks after values point to notes of the source that are not given here.
# Columns and labels:
# acetylcholinesterase [1] = conditions: cited from earlier work
# acetylcholinesterase [2] = molecular target: acetylcholinesterase (Homo sapiens, UniProt P22303); test: biochemical; type: biochemical; conditions: for IC20: read-out: Porex Dot Test IC20
# acetylcholinesterase (Homo sapiens, UniProt P22303), sequence (P22303 32-614, species assumed): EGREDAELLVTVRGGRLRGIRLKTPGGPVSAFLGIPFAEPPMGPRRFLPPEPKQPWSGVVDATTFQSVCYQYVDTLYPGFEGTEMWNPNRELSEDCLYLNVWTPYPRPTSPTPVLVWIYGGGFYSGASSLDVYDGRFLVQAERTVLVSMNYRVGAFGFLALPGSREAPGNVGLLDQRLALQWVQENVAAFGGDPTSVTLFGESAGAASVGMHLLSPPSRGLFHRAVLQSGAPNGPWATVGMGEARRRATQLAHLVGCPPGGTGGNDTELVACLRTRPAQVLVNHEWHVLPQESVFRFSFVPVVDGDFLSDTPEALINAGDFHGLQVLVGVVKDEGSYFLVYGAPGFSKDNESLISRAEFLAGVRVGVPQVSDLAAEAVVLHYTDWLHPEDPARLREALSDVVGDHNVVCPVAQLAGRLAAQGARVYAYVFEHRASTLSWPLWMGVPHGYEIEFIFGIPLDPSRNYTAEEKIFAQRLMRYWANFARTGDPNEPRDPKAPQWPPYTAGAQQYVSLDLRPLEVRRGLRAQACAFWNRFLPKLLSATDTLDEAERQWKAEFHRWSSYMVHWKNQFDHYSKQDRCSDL
SMILES,EnviroLogix IC20 (acetylcholinesterase [1]) [μg/L],IC20 (acetylcholinesterase [2]) [ng/mL],further results
CNC(=O)Oc1cccc2c1OC(C)(C)C2 [Carbofuran],40,0.4,
CNC(=O)O/N=C(\SC)C(=O)N(C)C [Oxymyl],100,,Porex Dot Test IC20 (acetylcholinesterase [2]): 16.7 ng/mL
"CNC(=O)Oc1ccccc1OC(C)C [Baygon (propoxur), propoxur]",50,9,
CCOP(=S)(OCC)SCCSCC [Disulfoton],,0.5,
CCOP(=S)(OCC)Oc1cc(C)nc(C(C)C)n1 [Diazinon],,0.14,EnviroLogix IC50 (cells marked *) (acetylcholinesterase [1]): 3.0* μg/L
CCOP(=S)(OCC)SCSC(C)(C)C [Terbufos],,143,EnviroLogix IC50 (cells marked *) (acetylcholinesterase [1]): 12* μg/L
CNC(=O)ON=C(C)SC [Methomyl],,0.011,
CCOC(=O)CC(SP(=S)(OC)OC)C(=O)OCC (stereo not drawn) [Malithion],60,,Porex Dot Test IC20 (acetylcholinesterase [2]): 0.11 ng/mL
CNC(=O)Oc1cccc2ccccc12 [Carbaryl],110,9,
CNC(=O)O/N=C/C(C)(C)SC [Aldicarb],,33,
CCOP(=S)(OCC)Oc1nc(Cl)c(Cl)cc1Cl [Chloropyrifos],5.2,,IC50 (acetylcholinesterase [2]): 0.285 nM
CCOP(=O)(OCC)Oc1ccc([N+](=O)[O-])cc1 [Paraoxon],,,"detectable amount using instrument detection (acetylcholinesterase [2]): about 0.5 ng/mL; detectable level, determined visually (acetylcholinesterase [2]): 10 ng/mL"
